Measured values as given in patent publication US20190167611A1, “METHODS OF TREATING OR PREVENTING AMYLOID RELATED IMAGING ABNORMALITIES ASSOCIATED WITH ALZHEIMER'S DISEASE TREATMENT” (BIOGEN CHESAPEAKE LLC, priority 2016, published 2019).

Tests used:
[1] = human, in vivo
Protocol: The two groups are referred to as the 0.4 mg/day group and the 3.0 mg/day group, respectively.

[2] = tested on: Alzheimer's disease patients who present with clinically significant ARIA; assay: Clinical trial of glyburide plus standard of care versus placebo in Alzheimer's disease patients with clinically significant ARIA; format: in vivo, human; conditions: glyburide 0.5-3.0 mg/day, several routes
Protocol: In one arm, glyburide is administered as a bolus followed by continuous infusion. In a second arm, glyburide is administered via a transdermal patch or gel. In a third arm, glyburide is administered via injection. In a fourth arm, glyburide is administered orally. […] Total treatment duration will be a minimum of 72 hours and will continue as needed until acute brain edema has stabilized. […] Plasma levels of glyburide are determined daily or weekly. Each patient is monitored via blood sampling and MRI. Magnetic resonance imaging scans monitor patients for amyloid-related imaging abnormalities and progression of edema and/or associated hemorrhage. FLAIR sequences are evaluated for the presence of ARIA. A 4-point scale is used to assess presence of ARIA. The percentages of patients with ARIA are compared between treatment groups and placebo group.

Metabolite exposure in relation to the administered dose of RP-1127 [1] | Dose dependence of pharmacokinetics [1] | Compound | ARIA compared with the control group [2] | Brain edema compared with the control group [2] | Functional recovery compared with the control group [2] | Hemorrhage volume compared with the control group [2]
approximately proportional |  | COc1ccc(Cl)cc1C(=O)NCCc1ccc(S(=O)(=O)NC(=O)NC2CCC(O)CC2)cc1 (stereo not shown) [M1] |  |  |  | 
approximately proportional |  | COc1ccc(Cl)cc1C(=O)NCCc1ccc(S(=O)(=O)NC(=O)N[C@@H]2CCC[C@H](O)C2)cc1 [M2] |  |  |  | 
 | dose-independent pharmacokinetics | COc1ccc(Cl)cc1C(=O)NCCc1ccc(S(=O)(=O)NC(=O)NC2CCCCC2)cc1 [glyburide] | significantly reduced or inhibited | reduced brain edema | improved functional recovery | reduced hemorrhage volume
